Source: patent publication US20050267016A1, “CD-10 activated prodrug compounds” (priority 2001, published 2005)
Read-outs that look alike come from different tables or passages of the source.

Key:
[1] = test system: HL-60 xenograft homogenate; experiment: Hydrolysis by mouse tumor xenograft homogenates; type: biochemical; settings: 12.5 μg/mL, up to 1 hr, 37° C.
Protocol: (§1) Soluble protein was measured and results are reported as protein specific activity. The results, illustrated in FIG. 13, indicate the LNCaP cells contain the highest Suc-Ile-Ala-Leu-Dox hydrolyzing activity while HL-60 cells show no Suc-Ile-Ala-Leu-Dox hydrolyzing activity.

[2] = test system: LNCaP xenograft homogenate; experiment: Hydrolysis by mouse tumor xenograft homogenates; type: biochemical; settings: 12.5 μg/mL, up to 1 hr, 37° C.
Protocol: as §1

Parental CHO cells = experiment: Conversion to Leu-Dox or Gly-Dox in cell supernatants, parental CHO; type: cell-based, Chinese Hamster; settings: 10 μM, 37° C.
Protocol: (§2) To directly ask the question of whether the CD10 expressing cells were capable of cleaving the prodrug, supernatants from CD10 transfected or parental CHO cells treated with the compounds were collected. […] After incubation for 1, 4, and 24 hours, an aliquot of each supernatant was transferred to a 96-well plate and frozen at −20° C. Samples were subsequently thawed and analyzed by reversed phase HPLC (4.6×50 mm 21 TSK Super-ODS column) with fluorescence detection after dilution with 3 volumes of acetonitrile, removal of precipitate by centrifugation, and further dilution into 3 volumes of water. When incubated with Suc-βAla-Leu-Ala-Leu-Dox, there was no detectable metabolism to Leu-Dox observed with the parental cell line while clone 8 (CD10 transfected) generated significant levels of Leu-Dox from Suc-βAla-Leu-Ala-Leu-Dox (Table 27).

[3] = test system: CD10 transfected CHO cells (clone 8); experiment: Conversion to Leu-Dox or Gly-Dox in cell supernatants, CD10 transfected CHO; type: cell-based, Chinese Hamster; settings: Clone 8 (CD10 transfected), 10 μM, 37° C.
Protocol: as §2

[4] = Second single dose Maximum Tolerated Dose (SD-MTD) study, 49 days; settings: mouse, in vivo, iv
Protocol: In a second single dose Maximum Tolerated Dose (SD-MTD) study, groups of five normal ICR mice were administered intravenous bolus doses of Suc-βAla-Leu-Ala-Leu-Dox. The mice were observed daily for 49 days and body weights measured twice weekly.
In a second single dose Maximum Tolerated Dose (SD-MTD) study, groups of five normal ICR mice were administered intravenous bolus doses of Suc-Leu-Ala-Leu-Dox. The mice were observed daily for 49 days and body weights measured twice weekly.
In a second single dose Maximum Tolerated Dose (SD-MTD) study, groups of five normal ICR mice were administered intravenously bolus doses of Suc-Ile-Ala-Leu-Dox. The mice were observed daily for 49 days and body weights measured twice weekly.
In a second single dose Maximum Tolerated Dose (SD-MTD) study, groups of five normal ICR mice were administered intravenous bolus doses of Suc-βAla-Ile-Ala-Leu-Dox. The mice were observed daily for 49 days and body weights measured twice weekly.

[5] = mouse, in vivo, iv, 100 umol/kg
Protocol: (§3) Plasma was obtained from three individual animals in each group at 5 minutes, 1, 2, 4, or 6 hr.

[6] = test system: colorectal carcinoma LS174t xenograft; experiment: LS174t xenograft efficacy; type: in vivo, nude mice; settings: for Mean Day of Survival (MDS): animals whose tumors reached 1.5 g prior to Day 60; for long-term survivors: up to 60 days
Excerpt: There were 4 and 2 long-term survivors in the low and high dose groups, respectively, compared with 0 in the vehicle control group.

[7] = test system: colorectal carcinoma LS174t xenograft; settings: tolerated dose 3 mg/kg, same dosing regimen; cited from earlier work
[8] = test system: HL60 cells (CD10 negative); experiment: Proliferation of HL60 cells with supernatant from compound-treated CHO cells; type: cell-based; settings: Homo sapiens
Excerpt: Confirmation of the data is shown when Suc-βAla-Leu-Ala-Leu-Dox was compared to Suc-Leu-Ala-Gly-Dox and the results are consistent with the fact that Suc-βAla-Leu-Ala-Leu is cleaved by CD10 transfected cells and not by the parental cell lines.

[9] = test system: CD10 transfected CHO cells, Clone #3; experiment: 3H thymidine proliferation assay, CD10 transfected CHO Clone #3; type: cell-based, Chinese Hamster; settings: Cricetulus griseus, Table 25
Protocol: (§4) The fully assembled coding region was sub-cloned into a mammalian expression vector, downstream of the hCMV-MIE promoter. DNA sequence analysis confirmed sequence identity with the coding sequence of human CD10 (Genbank accession number Y00811). The expression plasmid was linearized and stably transfected into CHO—S cells. CD10 expressing transfectant clones were selected under 500 ug/mL of hygromycin and screened by flow cytometry for cell-surface CD10 expression using a commercially available anti-CD10-FITC antibody.

[10] = test system: 22 RV1 (prostate carcinoma) cells; experiment: 3H-thymidine incorporation, 22RV1 cells; type: cell-based; settings: Homo sapiens, Table 6, 48 hours, read-out: IC50 22RV1 CD10−PSA+
Protocol: Adherent cells, LNCaP (prostate carcinoma), PC-3 (prostate carcinoma) and 22 RV1 (prostate carcinoma), were cultured in DMEM media containing 10% heat inactivated fetal calf serum (FCS). On the day of the study the cells were detached from the plate with a trypsin solution. The collected cells were washed and resuspended at a concentration of 0.25×10^6 cells/ml in DMEM containing 10% FCS. 100 μl of cell suspension were added to 96 well plates and the plates were incubated for 3 hours to allow the cells to adhere. […] The plates were then incubated for 24 hours, pulsed with 1:0 μl of a 100 μCi/ml ^3H-thymidine and incubated for an additional 24 hours (total incubation time 48 hours). The plates were harvested using a 96 well Harvester (Packard Instruments) and counted on a Packard Top Count Counter. Four parameter logistic curves were fitted to the ^3H-thymidine incorporation as a function of drug molarity using Prism software to determine IC50 values.

in vivo = settings: female, ICR, mouse, iv, 10 umol/kg
Protocol: as §3

[11] = test system: CD10 transfected CHO cells, Clone #5; experiment: 3H thymidine proliferation assay, CD10 transfected CHO Clone #5; settings: Cricetulus griseus, read-out: IC50 Clone #5
Protocol: as §4

[12] = Metabolism and clearance in normal mice (plasma and urine, LC MS/MS); type: in vivo; settings: after Suc-βAla-Ile-Ala-Leu-Dox 117 mg/kg

Structure (SMILES): CC[C@H](C)[C@H](NC(=O)CCC(=O)O)C(=O)N[C@@H](C)C(=O)N[C@@H](CC(C)C)C(=O)N[C@H]1C[C@H](O[C@H]2C[C@](O)(C(=O)CO)Cc3c(O)c4c(c(O)c32)C(=O)c2c(OC)cccc2C4=O)O[C@@H](C)[C@H]1O [Suc-Ile-Ala-Leu-Dox]
- hydrolyzing activity (protein specific activity) [1]: no
- hydrolyzing activity (protein specific activity) [2]: highest

Structure (SMILES): COc1cccc2c1C(=O)c1c(O)c3c(c(O)c1C2=O)C[C@@](O)(C(=O)CO)C[C@@H]3O[C@H]1C[C@H](NC(=O)[C@H](CC(C)C)NC(=O)[C@H](C)NC(=O)[C@H](CC(C)C)NC(=O)CCNC(=O)CCC(=O)O)[C@H](O)[C@H](C)O1 [Suc-βAla-Leu-Ala-Leu-Dox]
- Conversion rate to Leu-Dox or Gly-Dox (Parental CHO cells): 0 mM/h
- Percent Conversion/Hour to Leu-Dox or Gly-Dox (Parental CHO cells): 0 Percent Conversion/Hour
- Conversion rate to Leu-Dox or Gly-Dox [3]: 0.30 mM/h
- Percent Conversion/Hour to Leu-Dox or Gly-Dox [3]: 3.00 Percent Conversion/Hour
- MTD [4]: 50 mg/kg
- AUC(0-t) [5]: 806 µM·h

Structure (SMILES): CC[C@H](C)[C@H](NC(=O)CCNC(=O)CCC(=O)O)C(=O)N[C@@H](C)C(=O)N[C@@H](CC(C)C)C(=O)N[C@H]1C[C@H](O[C@H]2C[C@](O)(C(=O)CO)Cc3c(O)c4c(c(O)c32)C(=O)c2c(OC)cccc2C4=O)O[C@@H](C)[C@H]1O [Suc-βAla-Ile-Ala-Leu-Dox]
- Mean Day of Survival (MDS) ([6]; 53 mg/kg Q5DX5): 29.7 days
- long-term survivors ([6]; 53 mg/kg i.v. Q5DX5, groups of ten): 4
- Mean Day of Survival (MDS) ([6]; 68 mg/kg Q5DX5): 23.4 days
- long-term survivors ([6]; 68 mg/kg i.v. Q5DX5, groups of ten): 2

Structure (SMILES): COc1cccc2c1C(=O)c1c(O)c3c(c(O)c1C2=O)C[C@@](O)(C(=O)CO)C[C@@H]3O[C@H]1C[C@H](N)[C@H](O)[C@H](C)O1 [Doxorubicin, reference compound]
- efficacy in LS174t model [7]: historically ineffective
- IC50 ([8]; HL-60, 24 h, HL60 fresh compound, 24 hours): 164 nM
- IC50 ([8]; HL-60, 24 h, supernatant of Parental CHO, collected 24 hours after exposure): 279 nM
- IC50 ([8]; HL-60, supernatant of Clone 8 (CD10 Pos.)): 488 nM
- IC50 ([8]; HL-60, supernatant of Clone 10 (CD10 Neg.)): 417 nM
- IC50 ([8]; HL-60, supernatant of Clone DB4 (CD10 Pos.)): 491 nM
- IC50 [9]: 550 nM
- IC50 [10]: 30 nM
- AUC(0-t) (in vivo): 3.3 µM·h
- IC50 [11]: 810 nM
- Urine (% adm. dose) 2 hr ([12]; collected 0-2 hours): 0.21 % adm. dose
- Urine (% adm. dose) 24 hr ([12]; collected 2-24 hours): 0.51 % adm. dose
